27 compounds from patent publication US8580832B2, “Substituted phenoxy aminothiazolones as estrogen related receptor-α modulators” (Janssen Pharmaceutica N.V., priority 2007, dated 2013) can be followed below.

SMILES strings stand for the structures.

This experiment addresses T1, ERR1 (also known as ERR-α or ERR-1) (Homo sapiens, UniProt P11474).
T1 construct: the ^6His-tagged-ERR1 LBD
T1 sequence (P11474 193-421 limits assumed): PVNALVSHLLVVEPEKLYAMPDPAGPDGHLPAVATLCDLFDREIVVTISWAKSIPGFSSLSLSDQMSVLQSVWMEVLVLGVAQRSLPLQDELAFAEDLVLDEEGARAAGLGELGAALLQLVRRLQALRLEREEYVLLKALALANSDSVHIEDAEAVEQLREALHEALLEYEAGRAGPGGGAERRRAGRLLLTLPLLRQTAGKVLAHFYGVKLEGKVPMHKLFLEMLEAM
Put plainly: TR-FRET assay: disruption of co-activator peptide binding to ERR1 LBD. It counts as biochemical. The note with it: 6His-tagged ERR1 LBD 6 nM, GST-SRC-2 peptide 6 nM, 25° C., 4-18 hours; average of 3 independent experiments. As for the experimental part: Time-Resolved Fluorescence Resonance Energy Transfer (TR-FRET) experiments were performed to examine the functional response of ERR1 (also known as ERR-α or ERR-1) ligands. The TR-FRET assay described herein relied on the conformation of ERR1 for binding to a co-activator peptide: when a test compound binds to ERR1 and alters its conformation, it can disrupt the binding of the co-activator peptide. The components of this homogeneous secondary assay included: the ^6His-tagged-ERR1 LBD, a GST-labeled-hSRC2 co-activator polypeptide and a fluorescent donor/acceptor pair from CIS bio international htrf/bioassays (Bedford, Mass.) using both an α-GST Europium Cryptate (Eu) label and an α^6His-XL665 (allophycocyanin) fluorophore.
For TR-FRET measurements, the reaction was buffered in 25 mM Tris pH 8, 2.5 mM Hepes, 20 mM KCl, 1 mM DTT, and 0.05 mg/mL BSA (-lipids). […] Reactions were allowed to reach equilibrium at 25° C. for 4-18 hours before collecting data on the Analyst from LJL Biosystems (Molecular Devices Sunnyvale, Calif.). […] Dose response curves were fitted using a hyperbolic equation and the data reported is the average of 3 independent experiments.
Background: TR-FRET usually uses a lanthanide donor and a delayed reading to cut background.

A word on the EC50: it is the concentration at which the effect is half-maximal. A higher EC50 goes with a less potent agent. Turning to `N#Cc1ccc(Oc2ccc(/C=C3\SC(N(CCO)CCO)=NC3=O)cc2F)c(C(F)(F)F)c1` [Example 41, 4-(4-{2-[Bis-(2-hydroxy-ethyl)-amino]-4-oxo-4H-thiazol-5-ylidenemethyl}-2-fluoro-phenoxy)-3-trifluoromethyl-benzonitrile], the EC50 was determined as 18 nM.

`COc1cc(/C=C2\SC(N3CCCC(O)C3)=NC2=O)ccc1Oc1ccc(C(N)=O)cc1C(F)(F)F` (stereo not drawn) [Example 114, 4-{4-[2-(3-Hydroxy-piperidin-1-yl)-4-oxo-4H-thiazol-5-ylidenemethyl]-2-methoxy-phenoxy}-3-trifluoromethyl-benzamide] displayed an EC50 of 300 nM.

In turn, `N#Cc1ccc(Oc2ccc(/C=C3\SC(N4CCOCC4)=NC3=O)cc2F)c(C(F)(F)F)c1` [Compound 6, 4-[2-Fluoro-4-(2-morpholin-4-yl-4-oxo-4H-thiazol-5-ylidenemethyl)-phenoxy]-3-trifluoromethyl-benzonitrile] showed an EC50 of 50 nM.

`COC(=O)CCCNC1=NC(=O)/C(=C/c2ccc(Oc3ccc(C#N)cc3C(F)(F)F)c(OC)c2)S1` [Example 82, 4-{5-[4-(4-Cyano-2-trifluoromethyl-phenoxy)-3-methoxy-benzylidene]-4-oxo-4,5-dihydro-thiazol-2-ylamino}-butyric acid methyl ester]: the concentration giving a half-maximal response (EC50) stood at 55 nM.

Consider `N#Cc1ccc(Oc2ccc(/C=C3\SC(NCC(F)F)=NC3=O)cc2F)c(C(F)(F)F)c1` [Example 97, 4-{4-[2-(2,2-Difluoro-ethylamino)-4-oxo-4H-thiazol-5-ylidenemethyl]-2-fluoro-phenoxy}-3-trifluoromethyl-benzonitrile], for which the concentration giving a half-maximal response (EC50) was 40 nM.

The compound `COc1cc(/C=C2\SC(NCCN3CCCC3=O)=NC2=O)ccc1Oc1ccc(C#N)cc1Cl` [Example 63, 3-Chloro-4-(2-methoxy-4-{4-oxo-2-[2-(2-oxo-pyrrolidin-1-yl)-ethylamino]-4H-thiazol-5-ylidenemethyl}-phenoxy)-benzonitrile] yielded a half-maximal effective concentration (EC50) of 75 nM. This EC50 is about 1.9-fold higher than that of the compound before.

With `COc1cc(/C=C2\SC(NCCN3CCOCC3)=NC2=O)ccc1Oc1ccc(C#N)cc1C(F)(F)F` [Example 33, 4-{2-Methoxy-4-[2-(2-morpholin-4-yl-ethylamino)-4-oxo-4H-thiazol-5-ylidenemethyl]-phenoxy}-3-trifluoromethyl-benzonitrile], a half-maximal response (EC50) required 15 nM. This EC50 lies about 5-fold lower than the previous one.

The compound `COc1cc(/C=C2\SC(N(C)CC(O)CO)=NC2=O)ccc1Oc1ccc(C#N)cc1C(F)(F)F` (stereo not drawn) [Compound 23, 4-(4-{2-[(2,3-Dihydroxy-propyl)-methyl-amino]-4-oxo-4H-thiazol-5-ylidenemethyl}-2-methoxy-phenoxy)-3-trifluoromethyl-benzonitrile] displayed an EC50 of 9 nM.

For the compound `COC(=O)c1ccc(Oc2ccc(/C=C3\SC(N4CCC(C(=O)OC)CC4)=NC3=O)cc2OC)c(C(F)(F)F)c1` [Example 113, 1-{5-[3-Methoxy-4-(4-methoxycarbonyl-2-trifluoromethyl-phenoxy)-benzylidene]-4-oxo-4,5-dihydro-thiazol-2-yl}-piperidine-4-carboxylic acid methyl ester], the midpoint of the response, the EC50, lay at 14 nM. This EC50 is about 1.6-fold higher than that of the compound before.

For the compound `COc1cc(/C=C2\SC(N(CCO)CCO)=NC2=O)ccc1Oc1ccc(C(F)(F)F)cc1C(F)(F)F` [Example 117, 2-[Bis-(2-hydroxy-ethyl)-amino]-5-[4-(2,4-bis-trifluoromethyl-phenoxy)-3-methoxy-benzylidene]-thiazol-4-one], the response was half-maximal at 40 nM (EC50).

The compound `N#Cc1ccc(Oc2ccc(/C=C3\SC(NCCCN4CCOCC4)=NC3=O)cc2F)c(C(F)(F)F)c1` [Example 49, 4-{2-Fluoro-4-[2-(3-morpholin-4-yl-propylamino)-4-oxo-4H-thiazol-5-ylidenemethyl]-phenoxy}-3-trifluoromethyl-benzonitrile] gave an EC50 of 10 nM.

Take `COc1cc(/C=C2\SC(NCCN3CCCC3)=NC2=O)ccc1Oc1ccc(C#N)cc1C(F)(F)F` [Compound 20, 4-{2-Methoxy-4-[4-oxo-2-(2-pyrrolidin-1-yl-ethylamino)-4H-thiazol-5-ylidenemethyl]-phenoxy}-3-trifluoromethyl-benzonitrile]: the EC50 was 32 nM. Compared with the last compound, the EC50 is about 3.2-fold higher.

Compound `CN1CCN(C2=NC(=O)/C(=C/c3ccc(Oc4ccc(C#N)cc4C(F)(F)F)c(F)c3)S2)CC1=O` [Example 43, 4-{2-Fluoro-4-[2-(4-methyl-3-oxo-piperazin-1-yl)-4-oxo-4H-thiazol-5-ylidenemethyl]-phenoxy}-3-trifluoromethyl-benzonitrile] displayed an EC50 of 22 nM.

`COc1cc(/C=C2\SC(N3CCN(C(C)=O)CC3)=NC2=O)ccc1Oc1ccc(C#N)cc1C(F)(F)F` [Example 31, 4-{4-[2-(4-Acetyl-piperazin-1-yl)-4-oxo-4H-thiazol-5-ylidenemethyl]-2-methoxy-phenoxy}-3-trifluoromethyl-benzonitrile] registered an EC50 of 6 nM. This EC50 is about 3.7-fold lower than that of the compound before.

Consider `CC1CN(C2=NC(=O)/C(=C/c3ccc(Oc4ccc(C#N)cc4C(F)(F)F)c(F)c3)S2)CC(C)O1` (stereo not drawn) [Example 46, 4-{4-[2-(2,6-Dimethyl-morpholin-4-yl)-4-oxo-4H-thiazol-5-ylidenemethyl]-2-fluoro-phenoxy}-3-trifluoromethyl-benzonitrile], for which the EC50 is 19 nM.

In the case of `COc1cc(/C=C2\SC(NCCC3CCOCC3)=NC2=O)ccc1Oc1ccc(C#N)cc1C(F)(F)F` [Example 109, 4-(2-Methoxy-4-{4-oxo-2-[2-(tetrahydro-pyran-4-yl)-ethylamino]-4H-thiazol-5-ylidenemethyl}-phenoxy)-3-trifluoromethyl-benzonitrile], the concentration giving a half-maximal response (EC50) worked out at 5 nM.

`COc1cc(/C=C2\SC(NCC3CNCCO3)=NC2=O)ccc1Oc1ccc(C#N)cc1C(F)(F)F` (stereo not drawn) [Example 80, 4-(2-Methoxy-4-{2-[(morpholin-2-ylmethyl)-amino]-4-oxo-4H-thiazol-5-ylidenemethyl}-phenoxy)-3-trifluoromethyl-benzonitrile]: the EC50 is 35 nM.

Turning to `COc1cc(/C=C2\SC(N3CCCC(O)C3)=NC2=O)ccc1Oc1ccc(C(F)(F)F)cc1C(F)(F)F` (stereo not drawn) [Example 58, 5-[4-(2,4-Bis-trifluoromethyl-phenoxy)-3-methoxy-benzylidene]-2-(3-hydroxy-piperidin-1-yl)-thiazol-4-one], the response was half-maximal at 24 nM (EC50). The EC50 values of the last two compounds are within 1.5-fold of each other.

`COc1cc(/C=C2\SC(NCC(F)F)=NC2=O)ccc1Oc1ccc(C#N)cc1C(F)(F)F` [Example 92, 4-{4-[2-(2,2-Difluoro-ethylamino)-4-oxo-4H-thiazol-5-ylidenemethyl]-2-methoxy-phenoxy}-3-trifluoromethyl-benzonitrile] returned an EC50 of 6 nM. This EC50 lies about 4-fold lower than the previous one.

As for `N#Cc1ccc(Oc2ccc(/C=C3\SC(NCCC4CCOCC4)=NC3=O)cc2F)c(C(F)(F)F)c1` [Example 110, 4-(2-Fluoro-4-{4-oxo-2-[2-(tetrahydro-pyran-4-yl)-ethylamino]-4H-thiazol-5-ylidenemethyl}-phenoxy)-3-trifluoromethyl-benzonitrile], the EC50 was 26 nM. This EC50 is about 4.3-fold higher than that of the compound before.

For `COc1cc(/C=C2\SC(NC3CCNC3)=NC2=O)ccc1Oc1ccc(C#N)cc1C(F)(F)F` (stereo not drawn) [Compound 13, 4-{2-Methoxy-4-[4-oxo-2-(pyrrolidin-3-ylamino)-4H-thiazol-5-ylidenemethyl]-phenoxy}-3-trifluoromethyl-benzonitrile], it took 34 nM to reach a half-maximal effect (EC50).

With `COc1cc(/C=C2\SC(N3CC(C(=O)O)C3)=NC2=O)ccc1Oc1ccccc1C(F)(F)F` [Example 119, 1-{5-[3-Methoxy-4-(2-trifluoromethyl-phenoxy)-benzylidene]-4-oxo-4,5-dihydro-thiazol-2-yl}-azetidine-3-carboxylic acid], it took 10 nM to reach a half-maximal effect (EC50).

Turning to `COc1cc(/C=C2\SC(N3CCCC(O)C3)=NC2=O)ccc1Oc1ccc(C#N)cc1C(F)(F)F` (stereo not drawn) [Example 102, 4-{4-[2-(3-Hydroxy-piperidin-1-yl)-4-oxo-4H-thiazol-5-ylidenemethyl]-2-methoxy-phenoxy}-3-trifluoromethyl-benzonitrile], the EC50 was found to be 29 nM. Compared with the last compound, the EC50 is about 2.9-fold higher.

`COc1cc(/C=C2\SC(NCC(=O)O)=NC2=O)ccc1Oc1ccc(C#N)cc1C(F)(F)F` [Example 76, {5-[4-(4-Cyano-2-trifluoromethyl-phenoxy)-3-methoxy-benzylidene]-4-oxo-4,5-dihydro-thiazol-2-ylamino}-acetic acid] registered an EC50 of 16 nM. Against the preceding compound, the EC50 is about 1.8-fold lower.

As to `N#Cc1ccc(Oc2ccc(/C=C3\SC(NC4CC4)=NC3=O)cc2F)c(C(F)(F)F)c1` [Compound 10, 4-[4-(2-Cyclopropylamino-4-oxo-4H-thiazol-5-ylidenemethyl)-2-fluoro-phenoxy]-3-trifluoromethyl-benzonitrile], a half-maximal response (EC50) required 52 nM. Against the preceding compound, the EC50 is about 3.2-fold higher.

Consider `COc1cc(/C=C2\SC(NCCn3ccnc3)=NC2=O)ccc1Oc1ccc(C#N)cc1C(F)(F)F` [Example 70, 4-{4-[2-(2-Imidazol-1-yl-ethylamino)-4-oxo-4H-thiazol-5-ylidenemethyl]-2-methoxy-phenoxy}-3-trifluoromethyl-benzonitrile], for which the half-maximal effective concentration (EC50) is 24 nM.

In the case of `COc1cc(/C=C2\SC(NCCc3ccncc3)=NC2=O)ccc1Oc1ccc(C#N)cc1C(F)(F)F` [Example 28, 4-{2-Methoxy-4-[4-oxo-2-(2-pyridin-4-yl-ethylamino)-4H-thiazol-5-ylidenemethyl]-phenoxy}-3-trifluoromethyl-benzonitrile], a half-maximal response (EC50) required 7 nM.
